Series [1] has as its system Venetoclax-resistant PDX AML cells. Kind of series: in vivo PDX study in a Venetoclax-resistant model. The conditions noted are these: NSGS mice. The source says:
A=overview of the study implementation (corresponding to FIG. 5A) in NSGS mice injected with spleenocytes (n=12). B=flow cytometric analysis and % of live hCD45+AML cells in peripheral blood, spleen and bone marrow of the treated groups; C=immunohistological analysis of bone marrow and spleen tissue sections stained with hcd45 (brown); Quantitative analysis of the hCD45+ cells from C with three technical replicates (n=2). E=blood analysis of the survival group; F=Kaplan-Meier survival analysis (n=6 per group). […] The procedure was similar to that previously described for the CDX model, except for the addition of an endpoint control cohort in each treatment group.

In the next series the test system is OCI-AML3. In words: apoptosis induction, flow cytometry. In kind it is cell-based. The conditions noted are these: IMT alone, flow cytometry (FIG. 3). The protocol:
(§1) This analysis was carried out using flow cytometry and the established cellular markers for necrosis, apoptosis and living cells.
(§2) These experiments were followed by a broader analysis of the apoptosis induction by the inhibitor combination used in the four AML cell lines MV4-11, MOLM-13, OCI-AML3 and OCI-AML2 (FIG. 3). This analysis was carried out using flow cytometry and the established cellular markers for necrosis, apoptosis and living cells.

The subject of series [2] is MV4-11. Kind of series: apoptosis induction, flow cytometry. In kind it is cell-based. As for the experimental part:
as §1, §2

For a further series, the system named is OCI-AML2. Kind of series: apoptosis induction, flow cytometry. Type of series: cell-based. Conditions: IMT alone, flow cytometry (FIG. 3). The protocol: as §1, §2
A further series relates to MOLM-13. In words: apoptosis induction, flow cytometry. Type of series: cell-based. The protocol:
as §1, §2

A short description of series [3]: PK and toxicological studies, plasma and liver concentrations. Type of series: in vivo. The conditions noted are these: oral combination of the IMT and Venetoclax in 0.5% methyl cellulose in water, NBSGW mice, 4 hours, plasma and liver (FIG. 4). As for the experimental part:
Combinations s of 2-[(3R)-1-[(2R)-2-[4-(2-chloro-4-fluoro-phenyl)-2-oxo-chromen-7-yl]oxypropanoyl]-3-piperidyl]acetic acid and Venetoclax were administered orally in a formulation of 0.5% methyl cellulose in water, before the respective substance concentrations (y-axis) of Venetoclax (left) or 2-[(3R)-1-[(2R)-2-[4-(2-chloro-4-fluoro-phenyl)-2-oxo-chromen-7-yl]oxypropanoyl]-3-piperidyl]acetic acid (right) after 4 hours and extraction from blood plasma or liver tissue were analysed by LC-MS. Error bars indicate the standard deviation around the mean of the multiple measurements.
For this, a vehicle formulation suitable for the oral administration of the combination of Venetoclax and 2-[(3R)-1-[(2R)-2-[4-(2-chloro-4-fluoro-phenyl)-2-oxo-chromen-7-yl]oxypropanoyl]-3-piperidyl]acetic acid was prepared to examine its pharmacokinetic suitability. Since the formulations based on ethanol, PEG-400 and Phosal that have been published for Venetoclax have not proven to be suitable for generating an administrable solution or suspension of IMT and Venetoclax, a simplified formulation of 0.5% methyl cellulose in water was prepared, which was tested initially in PK and toxicological studies in NBSGW mice (FIG. 4). […] On the other hand, doses that could be safely used were established in this mouse model, with which the subsequent studies could be carried out.

Series [4] has as its system MV4-11. Kind of series: CellTiter-GLO (CTG) assay, combinatorial matrix. Type of series: cell-based. Conditions: MV4-11, CTG matrix of the IMT with Bcl-2 inhibitor (Venetoclax, Table 10), wide concentration range. The protocol: To determine the in vitro cellular viability, cellular ATP concentrations were measured using a luminescence-based homogenous assay format, as described here. […] Optimal cell density for each cell line was determined to guarantee linearity. For viability assays with compounds, cells were then seeded at a density of 200 to 1000 per well in 25 μl in 384-well plates (Greiner Bio-One, Frickenhausen, Germany). After overnight incubation at 37° C./5% CO2, 25 nl or 75 nl compounds were added to each sample well by using BIOMEK FXP Laboratory Automation Workstation (Beckman Coulter, USA). Wells with cells and 0.1% or 0.3% DMSO in culture medium were used as positive controls, wells with cells and 10 μM staurosporine (Selleck Chemicals, Huston, USA) in culture medium were used as negative controls. […] Luminescence was measured by Envision Plate Reader (Perkin Elmer, USA). […]
The general suitability of IMT substances for a combination with standard inhibitors of the Bcl-2 signalling pathway was first determined in in vitro cell culture experiments in a matrix format (Table 10). The changes in the cellular ATP content, as an indicator of the metabolic activity of the cells, were measured using the CellTiter-GLO Assay (CTG), as described in Example 1).

Setting [5] is: IMT alone, flow cytometry (FIG. 3).
The mark [6] stands for this setting: IMT combined with Venetoclax, compared to Venetoclax alone.

Consider `C[C@@H](Oc1ccc2c(-c3ccc(F)cc3Cl)cc(=O)oc2c1)C(=O)N1CCC[C@H](CC(=O)O)C1` [2-[(3R)-1-[(2R)-2-[4-(2-chloro-4-fluoro-phenyl)-2-oxo-chromen-7-yl]oxypropanoyl]-3-piperidyl]acetic acid], for which the “tumour load and circulating hCD45-positive AML cells” value in series [1] (IMT combined with Venetoclax vs individual inhibitors or control, peripheral blood, bone marrow, spleen (FIG. 6)) is recorded as “significantly lower”. Moreover, in series [1] (IMT/Bcl-2i combination, treatment lasting 21 days), the “overall survival (survival analysis)” value is “long-lasting, synergistic effect”. Moreover, the induction of apoptosis entry with OCI-AML3 is “cannot trigger apoptosis”; in the series on MV4-11 [2] (setting [5]), “cannot trigger apoptosis”; in the series with MV4-11 [2] (setting [6]), “increases the induction of apoptosis significantly”; with OCI-AML2, “cannot trigger apoptosis”; in the series on MOLM-13 (setting [5]) it was “cannot trigger apoptosis”; with MOLM-13 (setting [6]), “increases the induction of apoptosis significantly”. Also, the “PK parameters, in particular the plasma and tissue concentrations” value in series [3] is listed as “do not significantly influence one another”. Moreover, the “combinatorial effect (cellular ATP content)” value in the series with MV4-11 [4] is recorded as “additive or even synergistic effect”.

The record behind these values is patent US20240252454A1, “COMPOSITION COMPRISING AN INHIBITOR OF MITOCHONDRIAL TRANSCRIPTION” (LEAD DISCOVERY CENTER GMBH, priority 2021, published 2024).
